Measured values published in publication PMC8877224, “Diverse Secondary Metabolites from the Coral-Derived Fungus Aspergillus hiratsukae SCSIO 5Bn1003” (Marine Drugs, 2022).
Like-named read-outs stand apart in the source and are kept apart here. Where a SMILES comes first, the peptide text is derived from it. [ ]: non-standard residue; d: D form. NMeF = CN[CH](Cc1ccccc1)C(=O)O; 2Abz = Nc1ccccc1C(=O)O

Key:
[1] = tested on: MCF-7 (breast cancer); assay: in vitro cytotoxicity against MCF-7; assay type: cell-based; conditions: Homo sapiens
Procedure: (§1) All compounds were evaluated for their in vitro cytotoxicity against four human cancer lines, SF-268 (human glioblastoma carcinoma), MCF-7 (breast cancer), HepG-2 (liver cancer), and A549 (lung cancer), as well as antioxidative activity, α-glucosidase inhibitory activity, and antimicrobial activity against the bacteria Staphylococcus aureus and Bacillus subtilis (Tables S1–S3).
(§2) The details of the experimental procedures for cytotoxic and antioxidative bioassays were described previously in our former paper.

[2] = tested on: HepG-2 (liver cancer); assay: in vitro cytotoxicity against HepG-2; assay type: cell-based; conditions: Homo sapiens
Procedure: as §1, §2

[3] = tested on: SF-268 (human glioblastoma carcinoma); assay: in vitro cytotoxicity against SF-268; assay type: cell-based
Procedure: as §1, §2

[4] = antioxidative activity (DPPH radical scavenging); conditions: for Inhibition rate antioxidative activity: primary screening, 100 μM; for EC50: DPPH radical scavenging
Procedure: as §1, §2

[5] = tested on: Bacillus subtilis; assay: antibacterial assay, Mueller–Hinton broth microdilution; assay type: cell-based; conditions: for inhibition at 50 µM: primary screening, read-out: Inhibition rate Bacillus subtilis
Procedure: (§3) All the compounds were tested for antibacterial activity against Staphylococcus aureus and Bacillus subtilis using the Mueller–Hinton broth microdilution method. Ciprofloxacin was used as a positive control.

[6] = tested on: Staphylococcus aureus; assay: as above; assay type: cell-based; conditions: for inhibition at 50 µM: primary screening, read-out: Inhibition rate Staphylococcus aureus
Procedure: as §3

[7] = tested on: A549 (lung cancer); assay: in vitro cytotoxicity against A549; assay type: cell-based; conditions: Homo sapiens
Procedure: as §1, §2

[8] = tested on: intersegmental vessel (ISV) formation; assay: zebrafish assay for in vivo anti-angiogenic activity; conditions: zebrafish embryos
Procedure: The maintenance of zebrafish and the collection of embryos followed the method in the literature. One day after fertilization, the embryos were dechorionated with tweezers in a Petri dish coated with 1% agarose and distributed into small Petri dishes (35 × 10 mm) with 3 mL of assay solution, depending on the drug treatment. The embryos receiving a mixture of DMSO (0.1%) were used as the vehicle-treated control and were equivalent to a “no treatment” group. All the experiments were repeated at least three times, with 20 embryos per group.

[9] = MCF7, MCF-7 cells, mean ± SD, read-out: IC50 MCF-7
[10] = HepG2, primary screening, 50 μM, read-out: Inhibition rate HepG-2
[11] = SF-268, primary screening, 50 μM, read-out: Inhibition rate SF-268
[12] = Table 4, mean ± SD, read-out: MIC Bacillus subtilis
[13] = read-out: MIC against Bacillus subtilis
[14] = A549, primary screening, 50 μM, read-out: Inhibition rate A549
[15] = MCF7, primary screening, 50 μM, read-out: Inhibition rate MCF-7
[16] = Table 4, mean ± SD, read-out: MIC Staphylococcus aureus
[17] = read-out: MIC against Staphylococcus aureus

Row | Compound | inhibition at 50 µM [2, 10] [%] | inhibition at 50 µM [3, 11] [%] | Inhibition rate antioxidative activity [4] [%] | inhibition at 50 µM [5] [%] | inhibition at 50 µM [6] [%] | inhibition at 50 µM [7, 14] [%] | inhibition at 50 µM [1, 15] [%] | further results
1 | COc1cccc2c1C(=O)c1c(O)c3c(c(O)c1C2=O)C[C@@](O)(C(=O)CO)C[C@@H]3O[C@H]1C[C@H](N)[C@H](O)[C@H](C)O1 [Adriamycin, reference compound] | – | – | – | – | – | – | – | IC50 [1, 9]: 2.02 ± 0.04 µM
2 | CC(C)[C@H](C)/C=C/[C@@H](C)[C@H]1CCC2C3=CC(=O)O[C@@]3(O)CC[C@@]21C (stereo partly drawn) [Compound 6, demethylincisterol A2] | 81.4 | 93.2 | 1.00 | 79.6 | 29.4 | 0.41 | 92.2 | IC50 ([2]; HepG2, HepG-2 cells, mean ± SD, read-out: IC50 HepG-2): 43.6 ± 2.08 µM; IC50 ([3]; SF-268 cells, mean ± SD, read-out: IC50 SF-268): 34.8 ± 0.95 µM; MIC [5, 12]: 10.3 ± 0.76 µg/mL; MIC [5, 13]: 10.3 ± 0.76 µM; IC50 ([7]; A549 cells, mean ± SD, read-out: IC50 A549): 50.2 ± 0.54 µM; IC50 [1, 9]: 39.4 ± 0.52 µM
3 | CN1C(=O)C(Cc2ccc(O)cc2)NC(=O)CNC(=O)c2ccccc2NC(=O)C1Cc1ccccc1 (stereo not drawn) [Compound 1, asperhiratide] (cyclo([2Abz]GY[NMeF]); configuration not given here) | 0.38 | 0.82 | 4.30 | 3.87 | 5.22 | 4.4 | 1.03 | inhibitory effect on intersegmental vessel (ISV) formation [8]: weak inhibitory effect
4 | CC(C)=CC=CC(C)C1CCC2(C)CC3C(C)=CC(=O)C3C(C(=O)O)=CCC12 (stereo not drawn) [Compound 7, asperophiobolin E] | 40.7 | 9.64 | 3.60 | 94.3 | 82.4 | 0.58 | 38.8 | MIC [5, 12]: 17 ± 1.25 µg/mL; MIC [5, 13]: 17 ± 1.25 µM; MIC [6, 16]: 103 ± 4.5 µg/mL; MIC [6, 17]: 103 ± 4.5 µM
5 | CCCCCCCc1c(O)cc(CC=C(C)C)c(O)c1C=O [Compound 11, flavoglaucin] | 0.39 | 0.81 | 18.20 | 17.5 | 13 | 1.53 | 0.49 | –
6 | CC1C(=O)OCC1CC(OC(=O)c1ccccc1)C(C)(O)C1CCC2(O)C3=CC(=O)C4CC(O)C(O)CC4(C)C3CCC12C [Compound 2, 2S,3R,5R,9S,10R,13R,14R,17S,20R,22R,24S,27S-29-norcyasterone-22-O-benzoate] | 1.45 | 1.43 | 1.60 | 0.67 | 4.34 | 1.21 | 1.01 | –
7 | C=C1C[C@]2(O)[C@@]3(C)CCC(=O)C(C)(C)C3=C(O)C(=O)[C@@]2(C)[C@@H]2C(=O)O[C@@](C)(C(=O)OC)C(=O)[C@@]12C [Compound 5, terretonin] | 3.52 | 4.58 | 1.90 | 8.18 | 11.8 | 2.97 | 5.62 | –
8 | O=C1O[C@H]([C@@H](O)CO)C(O)=C1O [Ascorbic acid, reference compound] | – | – | – | – | – | – | – | EC50 [4]: 11.3 ± 0.56 µM
9 | COC(=O)C1=C[C@@H](O)[C@@H](O)[C@H](O)C1 [Compound 13, methyl shikimate] | 0.66 | 0.59 | 32.90 | 7.69 | 11.8 | 0.36 | 0.66 | –
10 | COC(=O)[C@]1(Cc2ccc(O)c(CC(O)C(C)(C)O)c2)OC(=O)C(O)=C1c1ccc(O)cc1 (stereo partly drawn) [Compound 9, butyrolactones VI] | 5.43 | 8.47 | – | 3.76 | 19.6 | 0.29 | 17.7 | EC50 [4]: 12.2 ± 0.78 µM; IC50 ([4]; as given in abstract, read-out: radical scavenging activities against DPPH, IC50): 12.2 ± 0.78 µM
11 | O=C(O)c1cn(C2CC2)c2cc(N3CCNCC3)c(F)cc2c1=O [Ciprofloxacin, reference compound] | – | – | – | – | – | – | – | MIC [5, 12]: 0.09 ± 0.003 µg/mL; MIC [6, 16]: 0.07 ± 0.001 µg/mL
12 | C=CC(C)(C)[C@@]12C[C@H]3C(=O)Nc4ccccc4C(=O)N3[C@H]1N(C=O)c1ccccc12 [Compound 10, epi-aszonalenins B] | 6.7 | 32.9 | 0.40 | 0.3 | 12.6 | 0.73 | 42.2 | –
13 | C=C1CCC2CC1C2(C)C1CCC(C)C(=O)O1 (stereo not drawn) [Compound 3, asperhiratone] | 0.13 | 2.31 | 2.00 | 9.17 | 7.98 | 0.83 | 3.24 | –
14 | COC(=O)[C@]1(Cc2ccc(O)c(CC=C(C)C)c2)OC(=O)C(O)=C1c1ccc(O)cc1 [Compound 8, butyrolactone I] | – | – | 2.50 | 91.3 | 84.4 | – | – | IC50 ([2]; HepG2, read-out: IC50 HepG-2): 31 ± 3.04 µM; inhibition at 50 µM ([2]; HepG2, read-out: Inhibition rate HepG-2): 69.1%; IC50 ([3]; SF-268, read-out: IC50 SF-268): 31.4 ± 1.98 µM; inhibition at 50 µM ([3]; SF-268, read-out: Inhibition rate SF-268): 41.9%; MIC ([5]; read-out: MIC Bacillus subtilis): 5.3 ± 0.29 µg/mL; MIC [5, 13]: 5.3 ± 0.29 µM; MIC ([6]; read-out: MIC Staphylococcus aureus): 59.54 ± 0.5 µg/mL; MIC [6, 17]: 59.54 ± 0.5 µM; IC50 ([7]; A549, read-out: IC50 A549): 32.3 ± 2.36 µM; inhibition at 50 µM ([7]; A549, read-out: Inhibition rate A549): 21.5%; IC50 ([1]; MCF7, read-out: IC50 MCF-7): 38.6 ± 2.48 µM; inhibition at 50 µM ([1]; MCF7, read-out: Inhibition rate MCF-7): 50.7%
15 | CC(C)[C@H](C)C[C@@H](O)[C@](C)(O)C1CC[C@@]2(O)C3=CC(=O)C4C[C@@H](O)CC[C@]4(C)C3CC[C@]12C (stereo partly drawn) [Compound 4, schizaeasterone A] | 1.57 | 8.79 | 2.80 | 5.23 | 19.4 | 8.6 | 19.1 | –
